Source: patent US8629164B2, “Inhibitors of NF-κB” (Profectus Biosciences, Inc., priority 2009, dated 2014)

Test system: collagen-induced arthritis
Experiment: Mouse model of collagen-induced rheumatoid arthritis (CIA)
Excerpt: Male DBA mice developed arthritis by injecting bovine CII collagen in tails at day 1 and day 21.

O=C(NC1=CC(=O)C2OC2C1O)c1cc2ccccc2nc1O (racemic) [Example 2, (±)-2-hydroxy-N-(2-hydroxy-5-oxo-7-oxabicyclo[4.1.0]hept-3-en-3-yl)quinoline-3-carboxamide]
anti-inflammation effects vs vehicle treated group (Example 2 15 mg/kg s.c. qd 21-35, etanercept 50 ug/mouse ip qd 21-35, P<0.05): statistal significant anti-inflammation effects | hind paw erythema and swelling (arthritis index score) (daily d21-d35): significantly reduced | histological evaluation of joints (day 35): significant reduction of inflammation | myeloperoxidase activities (mouse, in vivo): concomitant reduction | tolerability of efficacious doses in mice (mouse, in vivo): well tolerated
